Consider 7 molecules from US20250339566A1, “INHIBITORS OF FIBROBLAST ACTIVATION PROTEIN” (UNIVERSITEIT ANTWERPEN, priority 2022, published 2025).

What all share (format): biochemical
One assay addresses T1, human DPP9 (Homo sapiens, UniProt Q86TI2).
T1 construct: made in house; host or cells: Sf9 insect cells (baculovirus)
Put plainly: DPP9 IC50 measurement (Ala-Pro-pNA). Conditions: for IC50: Ala-Pro-pNA 150 μM, pH 7.4; for Selectivity index DPP9: IC50(DPP9)/IC50(FAP). The text has this:
(§1) Used Enzymes in these Assays: • A gateway-entry clone for human FAP was purchased from Dharmacon (Accession number DQ891423) and the human secretion signal was replaced with the HoneyBee mellitin secretion signal. For transfection and expression of FAP in Sf9 insect cells the C-terminal BaculoDirect kit from LifeTechnologies was used. The enzyme was purified from the supernatant of the insect cells using immobilized Ni-chelating chromatography (GE healthcare, Diegem, Belgium), followed by anion-exchange chromatography using a 1 mL HiTrap Q and size exclusion chromatography using the Superdex 200 column (GE healthcare, Diegem, Belgium). • Human recombinant PREP was expressed in BL21(DE3) cells and purified using immobilized Co-chelating chromatography (GE healthcare), followed by anion-exchange chromatography on a 1 ml Mono Q column (GE healthcare). • DPP4 was purified from human seminal plasma. • Gateway-entry clones for human DPP8 and DPP9 were purchased from Dharmacon (Accession numbers DQ891733 and DQ892325 respectively). For transfection and expression of DPP8 and DPP9 in Sf9 insect cells the N-terminal BaculoDirect kit from LifeTechnologies was used. The enzymes were purified using immobilized Ni-chelating chromatography (GE healthcare, Diegem, Belgium), followed by anion-exchange chromatography using a 1 mL Mono Q (GE healthcare, Diegem, Belgium). • Recombinant human DPP2 was purchased from R&D.
(§2) Eight concentrations of inhibitors/probe were tested. The final DMSO concentration was kept constant during the experiment to exclude any effects. Inhibitors were pre-incubated with the enzyme for 15 minutes at 37° C., afterwards the substrate was added and the velocities of AMC release were measured kinetically at λex=380 nm, λem=465 nm for at least 10 minutes at 37° C. […] Eight concentrations of inhibitors were tested. The final DMSO concentration in kept constant during the experiment to exclude any effects. Inhibitors were pre-incubated with the enzyme for 15 minutes at 37° C., afterwards the substrate was added and the velocities of AMC release were measured kinetically at λex=380 nm, λem=465 nm for at least 10 minutes at 37° C. […] At least eight different inhibitor concentrations were used. The final DMSO concentration is kept constant during the experiment to exclude any effects. Inhibitors were pre-incubated with the enzyme for 15 minutes at 37° C., afterwards the substrate was added and the velocities of pNA release were measured kinetically at 405 nm for at least 10 minutes at 37° C. Measurements were done on the Infinite 200 (Tecan Group Ltd.) and the Magellan software was used to process the data. • For DPP2: Initial velocity measurements were carried out. Lys-Ala-pNA was used as the substrate at a concentration of 1 mM at pH 5.5 (100 mM NaAc, 10 mM EDTA, 14 μg/mL aprotinin). Inhibitors were tested at one concentration, 5 μM, being the final concentration in the well. Inhibitors were pre-incubated with the enzyme for 15 minutes at 37° C., afterwards the substrate was added and the velocities of pNA release were measured kinetically at 405 nm for at least 10 minutes at 37° C. Measurements were done on the Infinite 200 (Tecan Group Ltd.) and the Magellan software was used to process the data.

In a further assay the target is T2, DPP4 (Homo sapiens, UniProt P27487).
T2 construct: DPP4 was purified from human seminal plasma; from tissue; host or cells: human seminal plasma
As to the kind of experiment: DPP4 IC50 measurement (Ala-Pro-pNA). Conditions: for IC50: Ala-Pro-pNA 25 μM, pH 7.4; for Selectivity index DPP4: IC50(DPP4)/IC50(FAP).
Excerpt: as §1, §2

A further assay addresses T3, Human recombinant PREP (Homo sapiens, UniProt P48147).
T3 construct: made in house; host or cells: E. coli BL21(DE3)
T3 sequence (P48147 1-710): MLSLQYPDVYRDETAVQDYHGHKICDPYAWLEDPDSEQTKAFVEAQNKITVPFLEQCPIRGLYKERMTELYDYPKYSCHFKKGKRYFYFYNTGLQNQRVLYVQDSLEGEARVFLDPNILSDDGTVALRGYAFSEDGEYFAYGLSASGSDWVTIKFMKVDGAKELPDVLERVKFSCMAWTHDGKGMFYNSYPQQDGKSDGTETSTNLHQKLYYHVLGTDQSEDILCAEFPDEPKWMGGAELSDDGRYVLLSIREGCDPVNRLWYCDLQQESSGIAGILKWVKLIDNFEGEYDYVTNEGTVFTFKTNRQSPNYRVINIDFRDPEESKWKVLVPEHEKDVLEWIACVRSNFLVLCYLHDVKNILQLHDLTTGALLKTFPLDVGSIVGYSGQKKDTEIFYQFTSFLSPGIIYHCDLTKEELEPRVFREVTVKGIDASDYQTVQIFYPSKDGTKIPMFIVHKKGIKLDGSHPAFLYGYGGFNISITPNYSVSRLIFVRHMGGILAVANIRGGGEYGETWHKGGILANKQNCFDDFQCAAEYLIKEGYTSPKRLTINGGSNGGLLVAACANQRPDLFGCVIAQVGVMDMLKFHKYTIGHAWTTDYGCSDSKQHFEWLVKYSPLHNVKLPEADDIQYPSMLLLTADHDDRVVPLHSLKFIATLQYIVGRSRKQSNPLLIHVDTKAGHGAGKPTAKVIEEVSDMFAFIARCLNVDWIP
Put plainly: PREP IC50 measurement (N-succinyl-Gly-Pro-AMC). Conditions: for Selectivity index PREP: IC50(PREP)/IC50(FAP); for IC50: N-succinyl-Gly-Pro-AMC 250 μM, pH 7.4.
Excerpt: as §1, §2

The target in the next assay is T4, human FAP (Homo sapiens, UniProt Q12884).
T4 construct: the human secretion signal was replaced with the HoneyBee mellitin secretion signal; honeybee melittin secretion signal (replaces the native signal) (N); made in house; host or cells: Sf9 insect cells (baculovirus), purified from supernatant
T4 sequence (Q12884 26-760 limits assumed): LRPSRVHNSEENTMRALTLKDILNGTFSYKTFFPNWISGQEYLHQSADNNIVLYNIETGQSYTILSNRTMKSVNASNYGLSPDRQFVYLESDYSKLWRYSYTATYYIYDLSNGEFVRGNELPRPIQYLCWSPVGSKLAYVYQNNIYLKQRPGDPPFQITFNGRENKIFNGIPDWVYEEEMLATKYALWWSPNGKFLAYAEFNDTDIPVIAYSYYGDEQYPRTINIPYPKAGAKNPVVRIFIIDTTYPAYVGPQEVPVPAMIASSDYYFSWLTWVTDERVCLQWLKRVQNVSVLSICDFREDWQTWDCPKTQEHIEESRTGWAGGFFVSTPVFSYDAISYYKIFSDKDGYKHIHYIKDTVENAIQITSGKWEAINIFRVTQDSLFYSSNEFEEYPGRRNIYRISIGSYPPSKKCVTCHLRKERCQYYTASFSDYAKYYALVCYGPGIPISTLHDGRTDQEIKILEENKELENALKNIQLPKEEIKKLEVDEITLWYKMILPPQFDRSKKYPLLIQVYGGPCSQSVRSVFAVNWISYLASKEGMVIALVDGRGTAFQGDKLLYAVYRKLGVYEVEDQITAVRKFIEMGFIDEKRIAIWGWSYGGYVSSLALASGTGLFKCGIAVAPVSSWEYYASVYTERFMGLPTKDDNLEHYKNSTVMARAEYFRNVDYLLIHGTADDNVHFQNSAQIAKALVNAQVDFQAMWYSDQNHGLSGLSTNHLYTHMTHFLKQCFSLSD
Put plainly: FAP IC50 measurement (Z-Gly-Pro-AMC). Conditions: Z-Gly-Pro-AMC 50 μM, pH 8, 15 min pre-incubation.
Excerpt: as §1, §2

The target in another assay is T5, human DPP8 (Homo sapiens, UniProt Q6V1X1).
T5 construct: made in house; host or cells: Sf9 insect cells (baculovirus)
As to the kind of experiment: DPP8 IC50 measurement (Ala-Pro-pNA). The note with it: for IC50: read-out: DPP8 IC50; for Selectivity index DPP8: IC50(DPP8)/IC50(FAP).
Excerpt: as §1, §2

Like-named read-outs stand apart in the source and are kept apart here.

T1 sequence (Q86TI2 whole entry): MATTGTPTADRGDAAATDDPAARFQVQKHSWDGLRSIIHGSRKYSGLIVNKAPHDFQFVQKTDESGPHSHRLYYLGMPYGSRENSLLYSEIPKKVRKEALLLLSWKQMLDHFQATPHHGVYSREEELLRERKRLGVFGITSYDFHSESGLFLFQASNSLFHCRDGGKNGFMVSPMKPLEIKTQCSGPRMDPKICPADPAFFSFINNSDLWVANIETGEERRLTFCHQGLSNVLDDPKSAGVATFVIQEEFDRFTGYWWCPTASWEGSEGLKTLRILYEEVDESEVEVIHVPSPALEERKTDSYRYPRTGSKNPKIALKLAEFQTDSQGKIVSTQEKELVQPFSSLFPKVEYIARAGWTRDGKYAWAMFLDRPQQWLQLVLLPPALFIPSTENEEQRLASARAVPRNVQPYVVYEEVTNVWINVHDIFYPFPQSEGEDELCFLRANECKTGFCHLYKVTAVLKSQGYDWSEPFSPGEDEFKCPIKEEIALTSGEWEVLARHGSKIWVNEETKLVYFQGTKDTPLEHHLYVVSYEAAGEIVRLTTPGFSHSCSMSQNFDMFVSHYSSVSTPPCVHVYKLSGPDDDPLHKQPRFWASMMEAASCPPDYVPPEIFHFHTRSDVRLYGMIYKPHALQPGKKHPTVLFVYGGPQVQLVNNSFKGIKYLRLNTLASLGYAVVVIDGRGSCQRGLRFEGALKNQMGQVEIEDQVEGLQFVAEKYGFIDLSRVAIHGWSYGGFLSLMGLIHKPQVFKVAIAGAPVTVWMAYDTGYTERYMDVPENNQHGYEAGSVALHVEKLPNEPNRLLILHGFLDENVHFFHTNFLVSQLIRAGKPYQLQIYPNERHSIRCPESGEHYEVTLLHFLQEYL
T5 sequence (Q6V1X1 whole entry): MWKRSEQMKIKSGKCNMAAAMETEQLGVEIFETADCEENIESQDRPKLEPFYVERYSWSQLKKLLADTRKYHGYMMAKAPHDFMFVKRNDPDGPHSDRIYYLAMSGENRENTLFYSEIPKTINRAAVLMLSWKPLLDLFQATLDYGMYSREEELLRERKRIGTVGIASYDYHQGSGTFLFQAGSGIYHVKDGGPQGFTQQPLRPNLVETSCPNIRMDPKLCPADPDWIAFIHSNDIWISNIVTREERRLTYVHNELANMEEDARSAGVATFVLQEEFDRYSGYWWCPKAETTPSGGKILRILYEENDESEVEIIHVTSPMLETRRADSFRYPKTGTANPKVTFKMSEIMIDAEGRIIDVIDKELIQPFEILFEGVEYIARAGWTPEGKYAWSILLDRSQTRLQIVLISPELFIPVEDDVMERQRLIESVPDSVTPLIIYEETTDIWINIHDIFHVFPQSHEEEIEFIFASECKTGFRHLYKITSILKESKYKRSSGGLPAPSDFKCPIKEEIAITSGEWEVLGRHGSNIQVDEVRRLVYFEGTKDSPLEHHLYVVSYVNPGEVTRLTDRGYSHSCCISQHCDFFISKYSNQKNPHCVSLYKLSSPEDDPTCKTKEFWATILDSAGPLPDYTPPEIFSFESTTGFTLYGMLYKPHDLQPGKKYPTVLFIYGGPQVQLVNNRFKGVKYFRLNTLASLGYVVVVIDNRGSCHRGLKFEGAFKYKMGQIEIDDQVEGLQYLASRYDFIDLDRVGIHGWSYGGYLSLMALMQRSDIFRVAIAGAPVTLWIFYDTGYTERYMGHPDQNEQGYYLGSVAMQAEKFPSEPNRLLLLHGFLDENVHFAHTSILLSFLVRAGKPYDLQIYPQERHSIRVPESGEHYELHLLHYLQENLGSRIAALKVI
T2 sequence (P27487 whole entry): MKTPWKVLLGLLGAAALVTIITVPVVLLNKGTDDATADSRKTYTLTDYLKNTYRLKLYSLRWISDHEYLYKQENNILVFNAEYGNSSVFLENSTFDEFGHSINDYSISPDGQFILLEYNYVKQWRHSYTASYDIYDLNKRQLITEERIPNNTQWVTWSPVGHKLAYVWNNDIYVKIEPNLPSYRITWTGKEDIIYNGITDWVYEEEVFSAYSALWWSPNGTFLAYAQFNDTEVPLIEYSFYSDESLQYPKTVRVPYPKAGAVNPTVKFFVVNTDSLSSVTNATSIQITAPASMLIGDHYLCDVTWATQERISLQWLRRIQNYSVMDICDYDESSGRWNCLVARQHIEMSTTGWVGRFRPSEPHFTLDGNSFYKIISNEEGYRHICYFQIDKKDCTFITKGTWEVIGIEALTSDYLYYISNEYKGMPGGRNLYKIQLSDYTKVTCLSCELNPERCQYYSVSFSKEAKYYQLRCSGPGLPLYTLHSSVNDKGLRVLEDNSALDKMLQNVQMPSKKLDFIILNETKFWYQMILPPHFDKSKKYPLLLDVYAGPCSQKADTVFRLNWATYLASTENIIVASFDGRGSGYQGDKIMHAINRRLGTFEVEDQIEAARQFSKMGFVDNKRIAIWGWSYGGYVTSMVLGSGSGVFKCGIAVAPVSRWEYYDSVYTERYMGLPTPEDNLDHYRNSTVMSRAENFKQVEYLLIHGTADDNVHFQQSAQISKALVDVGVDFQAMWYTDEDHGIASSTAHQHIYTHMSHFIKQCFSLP

By IC50 is commonly meant the concentration needed to halve the response being measured. For `C[N+]1(CCCOc2ccc3nccc(C(=O)NCC(=O)N4CC(F)(F)C[C@H]4C#N)c3c2)CCN(C(=O)c2ccc(B(O)O)cc2)CC1.Cc1ccc(S(=O)(=O)[O-])cc1` [Compound 12, (S)-4-(4-boronobenzoyl)-1-(3-((4-((2-(2-cyano-4,4-difluoropyrrolidin-1-yl)-2-oxoethyl)carbamoyl)quinolin-6-yl)oxy)propyl)-1-methylpiperazin-1-ium 4-methylbenzenesulfonate], the IC50 against human DPP9 is greater than 1 µM; against DPP4, greater than 1 µM; at Human recombinant PREP, greater than 10 µM; on human FAP, 0.00057 ± 5e-05 µM; on human DPP8 (Ala-Pro-pNA 300 μM, pH 7.4), greater than 1 µM. In addition, the “Selectivity index DPP9” value at human DPP9 is greater than 1700. In addition, at DPP4, the “Selectivity index DPP4” value was greater than 17000. For the same molecule, the “Selectivity index PREP” value on Human recombinant PREP is reported as greater than 17000. Besides, the “Selectivity index DPP8” value on human DPP8 was greater than 1700.

Take `C[N+](C)(CF)CCOCCOCCOc1ccc2nccc(C(=O)NCC(=O)N3CC(F)(F)C[C@H]3C#N)c2c1` [Compound 10, (S)-2-(2-(2-((4-((2-(2-cyano-4,4-difluoropyrrolidin-1-yl)-2-oxoethyl)carbamoyl)quinolin-6-yl)oxy)ethoxy)ethoxy)-N-(fluoromethyl)-N,N-dimethylethan-1-aminium hexafluorophosphate(V)]: the IC50 against human DPP9 is greater than 10 µM; on DPP4 it was greater than 1 µM; at Human recombinant PREP, greater than 1 µM; against human FAP it was 0.00046 ± 4e-05 µM; on human DPP8 (Ala-Pro-pNA 300 μM, pH 7.4), greater than 10 µM. Besides, the “Selectivity index DPP9” value at human DPP9 is given as greater than 21000. Besides, the “Selectivity index DPP4” value at DPP4 is listed as greater than 2100. The “Selectivity index PREP” value on Human recombinant PREP is greater than 2100. Moreover, at human DPP8, the “Selectivity index DPP8” value is recorded as greater than 21000.

In the case of `C[N+](C)(CCF)CCOCCOc1ccc2nccc(C(=O)NCC(=O)N3CC(F)(F)C[C@H]3C#N)c2c1` [Compound 8, (S)-2-(2-((4-((2-(2-cyano-4,4-difluoropyrrolidin-1-yl)-2-oxoethyl)carbamoyl)quinolin-6-yl)oxy)ethoxy)-N-(2-fluoroethyl)-N,N-dimethylethan-1-aminium 4-methylbenzenesulfonate], the IC50 at human DPP9 is greater than 10 µM; against DPP4, greater than 10 µM; on Human recombinant PREP, greater than 10 µM; on human FAP it was 0.00942 ± 0.00344 µM; at human DPP8 (Ala-Pro-pNA 300 μM, pH 7.4), greater than 10 µM. In addition, the “Selectivity index DPP9” value on human DPP9 is greater than 1300. At DPP4, the “Selectivity index DPP4” value is given as greater than 1300. In addition, the “Selectivity index PREP” value at Human recombinant PREP is listed as greater than 1300. Moreover, on human DPP8, the “Selectivity index DPP8” value is recorded as greater than 1300.

Regarding `C[N+](C)(C)CCOCCOCCOc1ccc2nccc(C(=O)NCC(=O)N3CC(F)(F)C[C@H]3C#N)c2c1.Cc1ccc(S(=O)(=O)[O-])cc1` [Compound 7, (S)-2-(2-(2-((4-((2-(2-cyano-4,4-difluoropyrrolidin-1-yl)-2-oxoethyl)carbamoyl)quinolin-6-yl)oxy)ethoxy)ethoxy)-N,N,N-trimethylethan-1-aminium 4-methylbenzenesulfonate], the IC50 against human DPP9 was greater than 10 µM; against DPP4, greater than 10 µM; on Human recombinant PREP, greater than 10 µM; against human FAP it was 0.00027 ± 2e-05 µM; at human DPP8 (Ala-Pro-pNA 300 μM, pH 7.4), greater than 10 µM. Further, on human DPP9, the “Selectivity index DPP9” value was greater than 36000. At DPP4, the “Selectivity index DPP4” value is reported as greater than 36000. Besides, at Human recombinant PREP, the “Selectivity index PREP” value is reported as greater than 36000. Further, the “Selectivity index DPP8” value on human DPP8 was greater than 36000.

Turning to `C[N+](C)(CF)CCOCCOc1ccc2nccc(C(=O)NCC(=O)N3CC(F)(F)C[C@H]3C#N)c2c1.Cc1ccc(S(=O)(=O)[O-])cc1` [Compound 9, (S)-2-(2-((4-((2-(2-cyano-4,4-difluoropyrrolidin-1-yl)-2-oxoethyl)carbamoyl)quinolin-6-yl)oxy)ethoxy)-N-(fluoromethyl)-N,N-dimethylethan-1-aminium 4-methylbenzenesulfonate], the “Selectivity index DPP9” value at human DPP9 is reported as greater than 20000. Moreover, the “Selectivity index DPP4” value at DPP4 was greater than 20000. On Human recombinant PREP, the “Selectivity index PREP” value was greater than 10000 and the IC50 came to 5.33 ± 0.71 µM. Besides, half-maximal inhibition on human FAP (IC50) required 0.00049 ± 1e-06 µM. In addition, the “Selectivity index DPP8” value at human DPP8 is listed as greater than 20000.

Take `C[N+](C)(CF)CCOc1ccc2nccc(C(=O)NCC(=O)N3CC(F)(F)C[C@H]3C#N)c2c1.Cc1ccc(S(=O)(=O)[O-])cc1` [Compound 4b, (S)-2-((4-((2-(2-cyano-4,4-difluoropyrrolidin-1-yl)-2-oxoethyl)carbamoyl)quinoline-6-yl)oxy)-N-(fluoromethyl)-N,N-dimethylethan-1-aminium 4-methylbenzenesulfonate]: the IC50 on human DPP9 was greater than 10 µM; against DPP4, greater than 10 µM; at Human recombinant PREP, greater than 10 µM; against human FAP it was 0.00253 ± 0.00013 µM; at human DPP8 (Ala-Pro-pNA 300 μM, pH 7.4), greater than 10 µM. Moreover, the “Selectivity index DPP9” value at human DPP9 was greater than 4800. Moreover, at DPP4, the “Selectivity index DPP4” value was greater than 4800. Besides, the “Selectivity index PREP” value at Human recombinant PREP (4-methylbenzenesulfonate) was 4853; at Human recombinant PREP (listed as UAMC-0005086, 4-methylbenzenesulfonate), greater than 4800. The “Selectivity index DPP8” value on human DPP8 was greater than 4800.

On to `N#C[C@@H]1CC(F)(F)CN1C(=O)CNC(=O)c1ccnc2ccccc12` [UAMC1110, reference compound], for which, on human DPP8 (heading: DPP8 IC50), the IC50 was greater than 10 µM.
